Test results published in patent US5900434A, “Method for inhibiting the production of interleukin-1 or tumor necrosis factor-α by administering acanthoic acid” (Korea Institute of Science and Technology, priority 1994, dated 1999).

Tests used:
rat = conditions: cited from earlier work
[1] = system: serum glutamic-oxaloacetic transaminase (sGOT); test: CCl4-induced hepatocirrhosis in rat, serum GOT; format: in vivo, Sprague-Dawley rat; conditions: vs CCl4, DMSO and PBS control; 0.2 ml orally twice a week, 13 weeks; FIG. 10
Source text: (§1) Hepatocirrhosis(hepatic sclerosis) is characterized by the fibrosis of whole liver, complete disruption of liver parenchyma by fibrous septa, and formation of regenerative nodules. It is derived mostly from a chronic hepatitis or chronic alcoholism, however, the precise causes thereof are unknown. In a hepatocirrhosis patient, the amount of cytokines, e.g., TNF-α, which is involved in inflammation and fibrosis, is in an increased state; and, therefore, the inhibition of hepatocirrhosis by acanthoic acid may be determined by the inhibitory activity to TNF-α. To induce the experimental hepatocirrhosis in accordance with the method of Nakataukasa, H., et al. as described in J. Clin. Invest., 85, 1833-1843(1990), 1.0 ml/100 g of body weight of CCl4 solution(50% CCl4 +50% corn oil) was injected intraperitoneally to 4 week old male Sprague-Dawley rats twice a week, and 0.2 ml each of methanol extract of A. koreanum Nakai and acanthoic acid was administered orally at the time of the injection of CCl4 twice a week. After 13 weeks from the start of the test, each of the rats was anesthetized with ether and the blood samples were obtained from the heart to determine serum glutamic-oxaloacetic transaminase(sGOT) value and serum glutamic-pyruvic transaminase(sGPT) value(FIG. 10).

[2] = system: serum glutamic-pyruvic transaminase (sGPT); test: CCl4-induced hepatocirrhosis in rat, serum GPT; format: in vivo, Sprague-Dawley rat; conditions: CCl4-treated rat; 0.2 ml orally twice a week, 13 weeks; FIG. 10
Source text: as §1

[3] = system: H2O2 production in human neutrophils; test: Production of H2O2 in human neutrophils (PMA-stimulated); format: cell-based
Protocol: Normal human peripheral blood was heparin-treated and diluted with equal amount of Hank's balanced salt solution (HBSS: Ca^2+ and Mg^2+ free). The diluted blood was put into a centrifuge tube containing therein Ficoll-Hypaque(Sigma, St. Louis, Mo., U.S.A.) layer having a density of 1.077 piled up on Ficoll-Hypaque layer having a density of 1.119, and then centrifuged at 700×g for 30 minutes to obtain monocytes from the layer between Ficoll-Hypaque layer having a density of 1.077 and serum layer, and neutrophils from the layer between Ficoll-Hypaque layer having a density of 1.077 and that having a density of 1.119. The separated cells were washed twice with 4° C. HBSS(Ca^2+ and Mg^2+ free) and suspended in RPMI 1640 medium(Gibco, Grand Island, N.Y., U.S.A.) containing 10% fetal bovine serum(FBS, Hyclone, Logan, Utah, U.S.A.). The suspensions were added to the wells of 24-well incubation plate(Costar, Cambridge, Mass., U.S.A.) and incubated at 37° C. for 2 hours to obtain monocytes, macrophages and neutrophils. Inflammatory responses are known as a cascade reaction comprising the secretion of various cytokines, e.g., IL-1, from immune cells stimulated by various stimulants; production of phospholipase A2, lysosomal enzyme, reactive oxygen species, etc. by other immune cells stimulated by said cytokines; and damage of tissues induced by the above products(Pruzanski, W. and […]., Immunol. Today, 12, 143(1991)). The ability of acanthoic acid to block the inflammatory reactions was tested by measuring their inhibitory activity to the production of reactive oxygen species, i.e., H2 O2 and O2^-. The amount of H2 O2 was determined by a microassay employing 96-well microplate as follows. 5×10^5 cells of neutrophils were added to each of the wells containing RPMI 1640 medium, and then 25 μl of horseradish peroxidase (500 μg/ml; type II, Sigma) and 75 μl of phenol red(1 mg/ml) were added to each of the wells. Thereafter, the cells were treated with 10, 20 and 50 μg/ml of acanthoic acid for an hour, stimulated with 10^-7 M phorbol myristate acetate(PMA) and then incubated at 37° C. for 60 minutes. When the incubation was completed, 3M NaOH was added to the wells in an amount of 25 μl/well to stop the reaction and O.D. was measured at 620 nm by using ELISA reader(Dynatech Lab. Inc.) to determine the change of colors with respect to the oxidation of phenol. The amount of H2 O2 was determined by employing a standard curve prepared by diluted H2 O2 (Sigma).

C=C[C@@]1(C)CC=C2C(CCC3[C@](C)(C(=O)O)CCC[C@@]23C)C1 (single isomer, unassigned; (-)) [acanthoic acid, (-)-pimara-9(11),15-diene-19-oic acid]
minimum lethal dose(MLD) (rat): 1000 mg/kg | decrease of sGOT value [1]: 30% | decrease of sGPT value [2]: more than 40% | activity at 10 µg/mL ([3]; Neutrophil, 1 h, PMA + acanthoic acid 10 μg/ml, PMA = 100, read-out: Amount of produced reactive oxygen species, H2O2 (% to the control group)): 70% | activity at 20 µg/mL ([3]; Neutrophil, 1 h, PMA + acanthoic acid 20 μg/ml, PMA = 100, read-out: Amount of produced reactive oxygen species, H2O2 (% to the control group)): 37.4% | activity at 50 µg/mL ([3]; Neutrophil, 1 h, PMA + acanthoic acid 50 μg/ml, PMA = 100, read-out: Amount of produced reactive oxygen species, H2O2 (% to the control group)): 15.8% | Amount of produced reactive oxygen species, H2O2 ([3]; PMA + acanthoic acid 10 μg/ml): 72.6 nM/60 min. | Amount of produced reactive oxygen species, H2O2 ([3]; PMA + acanthoic acid 20 μg/ml): 38.7 nM/60 min. | Amount of produced reactive oxygen species, H2O2 ([3]; PMA + acanthoic acid 50 μg/ml): 16.4 nM/60 min.
